In PMC8179002, “Inhibitors of thiol-mediated uptake” (Chemical Science, 2020):
Where two headings read alike, the source gives them in different places.

Test system: HeLa Kyoto cells
Experiment: Relative cell viability in HCHT screening (propidium iodide negative nuclei count)
Format: cell-based
Settings: HeLa, removal, tinc 0.5 h with 1 (10 µM), read-out: GI50, concentration causing 50% cell growth inhibition
Method in brief: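 HeLa cells pre-incubated with inhibitors at varying concentrations and times, inhibitors removed (or retained in co-incubation variant), then fluorescent reporter added. Live cells counted by automated microscopy as propidium iodide-negative nuclei, normalised to reporter-only wells; GI50 and Hill coefficient fitted from duplicates.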

Work on [O-][S+]1CC(O)C(O)CS1 (stereo not drawn) [compound 17] yielded a GI50 (tpre 1 h with inhibitor) of 710 ± 50 µM, a GI50 (tpre 2 h with inhibitor) of 730 ± 10 µM and a GI50 (tpre 4 h with inhibitor) of ~500 µM.
